The target in assay [1] is Gal4 DNA binding domain fused to the LBD of LXRα in HEK293 cells (Homo sapiens (Human), UniProt Q13133). The assay is described as follows: LXR luciferase transcriptional reporter gene assay, agonist mode, LXRα. The assay is classed as cell-based. Conditions: for EC50: read-out: Cell LXRα EC50. Background: Reporter assays use an easily measured gene product as a stand-in for the process of interest.

Another assay addresses LXR α LBD protein (Homo sapiens (Human), UniProt Q13133). The assay can be described thus: LXR α radioligand binding assay (SPA, competition with [3H]TO901317). Conditions: read-out: LXRα Binding Ki.
Another assay deals with LXR β LBD protein (Homo sapiens (Human), UniProt P55055). The assay is described as follows: biochemical. The assay is classed as binding.
Sequence of LXR β LBD protein (P55055 222-460 limits assumed): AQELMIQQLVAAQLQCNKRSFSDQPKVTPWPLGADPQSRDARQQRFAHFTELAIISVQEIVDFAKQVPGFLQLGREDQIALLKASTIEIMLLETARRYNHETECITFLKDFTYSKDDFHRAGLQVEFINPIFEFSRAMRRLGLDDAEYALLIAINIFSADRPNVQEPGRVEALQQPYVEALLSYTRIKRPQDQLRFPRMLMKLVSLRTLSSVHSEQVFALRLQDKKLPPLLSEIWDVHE
For assay [2], the target named is Gal4 DNA binding domain fused to the LBD of LXRβ in HEK293 cells (Homo sapiens (Human), UniProt P55055). The assay can be described thus: cell-based.
Sequence of Gal4 DNA binding domain fused to the LBD of LXRβ in HEK293 cells (P55055 222-460 limits assumed): as above
Where [3] appears, read: Biological Test Example 1, read-out: LXRβ Binding Ki.
Where [4] appears, read: Biological Test Example 2, agonist mode.

Read-outs that look alike come from different tables or passages of the source. Some results are limits rather than exact numbers.

Sequence of Gal4 DNA binding domain fused to the LBD of LXRα in HEK293 cells (Q13133 209-447): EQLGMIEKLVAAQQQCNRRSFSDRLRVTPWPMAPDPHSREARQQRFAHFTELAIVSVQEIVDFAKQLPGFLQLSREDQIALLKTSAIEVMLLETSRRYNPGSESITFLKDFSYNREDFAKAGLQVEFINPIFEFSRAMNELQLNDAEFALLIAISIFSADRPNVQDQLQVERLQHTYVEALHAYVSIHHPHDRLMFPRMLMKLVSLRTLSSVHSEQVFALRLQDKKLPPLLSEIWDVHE
Sequence of LXR α LBD protein (Q13133 209-447): as above

Usually EC50 stands for the concentration that produces a half-maximal response. One may read the Ki as a measure of affinity in units of concentration, obtained from inhibition or displacement. On to `CC(C)(O)[C@H]1CCC[C@@H](CN2CCN(c3cccc(S(C)(=O)=O)c3)CC2c2ccccc2)C1` (stereo partly drawn) [48-25, 2-((1S,3R)-3-((4-(3-(methylsulfonyl)phenyl)-2-phenylpiperazin-1-yl)methyl)cyclohexyl)propan-2-ol], for which the EC50 in assay [1] and in assay [2] was over 20000 nM each time. Moreover, the inhibition constant Ki worked out at 1240 nM on LXR α LBD protein and 178 nM on LXR β LBD protein.
As to `COCc1ccc(N2CCN(C[C@H]3CC[C@H](C(F)(F)F)CC3)[C@@H](c3ccccc3)C2)cc1S(C)(=O)=O` [48-49, (S)-4-(4-(methoxymethyl)-3-(methylsulfonyl)phenyl)-2-phenyl-1-(((1r,4S)-4-(trifluoromethyl)cyclohexyl)methyl)piperazine], in assay [1], the “Cell LXRα efficacy” value is recorded as 9842 (9) %. Moreover, the EC50 in assay [1] was 9840 nM; in assay [2] (Biological Test Example 2, agonist mode, read-out: Cell LXRβ EC50) it was 1350 nM. Moreover, the Ki at LXR α LBD protein is 13800 nM; on LXR β LBD protein (setting [3]), 1490 nM. Further, the “Cell LXRβ efficacy” value in assay [2] (setting [4]) was determined as 12%.
For the molecule `CC(C)[C@H]1CN(c2cccc(S(C)(=O)=O)c2)CCN1CC1CCOCC1` [51-2, (S)-2-isopropyl-4-(3-(methylsulfonyl)phenyl)-1-((tetrahydro-2H-pyran-4-yl)methyl)piperazine], the 50% effective concentration (EC50) is over 20000 nM in assay [1] (setting [4]) and 1360 nM in assay [2]. In addition, the inhibition constant (Ki) on LXR α LBD protein was over 3330 nM; at LXR β LBD protein (setting [3]), over 2500 nM. Further, the “Cell LXRβ efficacy” value in assay [2] (setting [4]) is 1362 (7) %.
In the case of `CC(C)[C@H]1CN(c2cccc(S(C)(=O)=O)c2)CCN1CC1CCC(C)(C)OC1` (stereo partly drawn) [51-3, (2S)-1-((6,6-dimethyltetrahydro-2H-pyran-3-yl)methyl)-2-isopropyl-4-(3-(methylsulfonyl)phenyl)piperazine], in assay [1], the “Cell LXRα efficacy” value is given as 3460 (51) %. The results for the concentration for a half-maximal effect (EC50) in assay [1] (setting [4]) and in assay [2] were 3460 nM and 590 nM, respectively. Besides, the Ki came out at 3170 nM at LXR α LBD protein and 482 nM on LXR β LBD protein (setting [3]). Also, the “Cell LXRβ efficacy” value in assay [2] (setting [4]) is 590 (50) %.
For the molecule `CC(=O)NCc1cnc(N2CCN(c3ccc(F)c(S(C)(=O)=O)c3)C[C@H]2C(C)C)nc1C(F)(F)F` [54-2, (R)-N-((2-(4-(4-fluoro-3-(methylsulfonyl)phenyl)-2-isopropylpiperazin-1-yl)-4-(trifluoromethyl)pyrimidin-5-yl)methyl)acetamide], in assay [1], the “Cell LXRα efficacy” value is recorded as 3064 (29) %. For the same molecule, the EC50 in assay [1] is 3060 nM; in assay [2] it was 812 nM. The Ki at LXR α LBD protein stood at 863 nM; on LXR β LBD protein (setting [3]), 81 nM. Further, the “Cell LXRβ efficacy” value in assay [2] (setting [4]) is 812 (27) %.
As for `CC(C)[C@@H]1CN(c2ccc(F)c(S(C)(=O)=O)c2)CCN1c1cnc(C(F)(F)F)cn1` [Cpd No 7-44, (R)-2-(4-(4-fluoro-3-(methylsulfonyl)phenyl)-2-isopropylpiperazin-1-yl)-5-(trifluoromethyl)pyrazine], the “Cell LXRα efficacy” value in assay [1] was 120 (97) %. Also, the EC50 turned out to be 120 nM in assay [1] (agonist mode) and 19 nM in assay [2]. The figures for the Ki on LXR α LBD protein and at LXR β LBD protein (read-out: LXRβ Binding Ki) were 43 nM and 4 nM, respectively. Besides, in assay [2], the “Cell LXRβ efficacy” value is reported as 19 (118) %.
Consider `CC(C)[C@@H]1CN(c2ccc(-c3nc(C#N)cs3)c(S(C)(=O)=O)c2)CCN1c1ncc(CO)c(C(F)(F)F)n1` [Cpd No 11-12, (R)-2-(4-(4-(5-(hydroxymethyl)-4-(trifluoromethyl)pyrimidin-2-yl)-3-isopropylpiperazin-1-yl)-2-(methylsulfonyl)phenyl)thiazole-4-carbonitrile], for which, in assay [1], the “Cell LXRα efficacy” value is recorded as 488 (67) %. Moreover, the EC50 came to 488 nM in assay [1] (agonist mode) and 41 nM in assay [2]. Moreover, the values for the inhibitory constant (Ki) on LXR α LBD protein and on LXR β LBD protein (read-out: LXRβ Binding Ki) were 194 nM and 8 nM, respectively. Further, in assay [2] (agonist mode), the “Cell LXRβ efficacy” value is recorded as 41 (73) %.
On to `CC(C)[C@@H]1CN(c2ccc(F)c(S(C)(=O)=O)c2)CCN1c1ncc([C@H](C)O)c(C(F)(F)F)n1` [Cpd No 12-2, (S)-1-(2-((R)-4-(4-fluoro-3-(methylsulfonyl)phenyl)-2-isopropylpiperazin-1-yl)-4-(trifluoromethyl)pyrimidin-5-yl)ethan-1-ol], for which the “Cell LXRα efficacy” value in assay [1] is listed as 746 (41) %. Further, the EC50 came to 746 nM in assay [1] and 117 nM in assay [2]. Besides, the results for the Ki on LXR α LBD protein and on LXR β LBD protein were 233 nM and 11 nM, respectively. In addition, the “Cell LXRβ efficacy” value in assay [2] (agonist mode) is listed as 117 (36) %.
Consider `CC(C)[C@@H]1CN(c2ccc(F)c(S(C)(=O)=O)c2)CCN1c1ncc([C@@H](C)O)c(C(F)(F)F)n1` [Cpd No 12-3, (R)-1-(2-((R)-4-(4-fluoro-3-(methylsulfonyl)phenyl)-2-isopropylpiperazin-1-yl)-4-(trifluoromethyl)pyrimidin-5-yl)ethan-1-ol], for which the “Cell LXRα efficacy” value in assay [1] is on record as 769 (43) %. Also, the concentration for a half-maximal effect (EC50) stood at 769 nM in assay [1] and 84 nM in assay [2]. Also, the inhibition constant Ki is 168 nM on LXR α LBD protein and 6 nM on LXR β LBD protein. Moreover, in assay [2] (agonist mode), the “Cell LXRβ efficacy” value is listed as 84 (29) %.
`CC(=O)c1cnc(N2CCN(c3ccc(F)c(S(C)(=O)=O)c3)C[C@H]2C(C)C)nc1C(F)(F)F` [Cpd No 13-1, (R)-1-(2-(4-(4-fluoro-3-(methylsulfonyl)phenyl)-2-isopropylpiperazin-1-yl)-4-(trifluoromethyl)pyrimidin-5-yl)ethan-1-one]: the “Cell LXRα efficacy” value in assay [1] is 253 (63) %. Besides, the values for the concentration for a half-maximal effect (EC50) in assay [1] and in assay [2] were 253 nM and 49 nM, respectively. Also, the Ki at LXR α LBD protein was 62 nM; at LXR β LBD protein it was 3 nM. Also, the “Cell LXRβ efficacy” value in assay [2] (agonist mode) is 49 (51) %.
As for `CC(C)[C@@H]1CN(c2ccc(F)c(S(C)(=O)=O)c2)CCN1c1cncc(C(F)(F)F)c1` [Cpd No 20-1, (R)-4-(4-fluoro-3-(methylsulfonyl)phenyl)-2-isopropyl-1-(5-(trifluoromethyl)pyridin-3-yl)piperazine], in assay [1], the “Cell LXRα efficacy” value is 678 (90) %. Besides, the EC50 in assay [1] amounted to 678 nM; in assay [2] it was 141 nM. For the same molecule, the values for the Ki at LXR α LBD protein and on LXR β LBD protein (read-out: LXRβ Binding Ki) were 166 nM and 24 nM, respectively. Moreover, in assay [2] (agonist mode), the “Cell LXRβ efficacy” value is on record as 141 (75) %.
For `CC(C)Oc1cc(C(F)(F)F)nc(N2CCN(c3ccc(F)c(S(C)(=O)=O)c3)C[C@H]2C(C)C)n1` [Cpd No 23-1, (R)-2-(4-(4-fluoro-3-(methylsulfonyl)phenyl)-2-isopropylpiperazin-1-yl)-4-isopropoxy-6-(trifluoromethyl)pyrimidine], the EC50 in assay [1] (agonist mode) and in assay [2] was over 20000 nM throughout. The inhibitory constant (Ki) came out at 1180 nM on LXR α LBD protein and 212 nM at LXR β LBD protein.
Turning to `CC(C)[C@@H]1CN(c2ccc(F)c(S(C)(=O)=O)c2)CCN1c1nc(C(F)(F)F)c(C(C)(C)O)s1` [Cpd No 26-1, (R)-2-(2-(4-(4-fluoro-3-(methylsulfonyl)phenyl)-2-isopropylpiperazin-1-yl)-4-(trifluoromethyl)thiazol-5-yl)propan-2-ol], in assay [1], the “Cell LXRα efficacy” value is listed as 584 (102) %. For the same molecule, the figures for the concentration giving a half-maximal response (EC50) in assay [1] (agonist mode) and in assay [2] were 584 nM and 185 nM, respectively. Moreover, the Ki at LXR α LBD protein was 111 nM; at LXR β LBD protein (read-out: LXRβ Binding Ki) it was 5 nM. Also, the “Cell LXRβ efficacy” value in assay [2] (agonist mode) is recorded as 185 (98) %.
Consider `Cc1csc(-c2ccc(N3CCN(c4ncc(CO)c(C(F)(F)F)n4)[C@H](C(C)C)C3)cc2S(C)(=O)=O)n1` [Cpd No 28-1, (R)-(2-(2-isopropyl-4-(3-(methylsulfonyl)-4-(4-methylthiazol-2-yl)phenyl)piperazin-1-yl)-4-(trifluoromethyl)pyrimidin-5-yl)methanol], for which the “Cell LXRα efficacy” value in assay [1] is given as 66 (80) %. Moreover, the EC50 in assay [1] (agonist mode) came out at 66 nM; in assay [2], 11 nM. The inhibitory constant (Ki) came to 29 nM on LXR α LBD protein and 3 nM on LXR β LBD protein (read-out: LXRβ Binding Ki). In addition, the “Cell LXRβ efficacy” value in assay [2] (agonist mode) was 11 (79) %.
On to `CC(C)[C@@H]1CN(c2ccc(F)c(S(C)(=O)=O)c2)CCN1c1ncc(O)c(C(F)(F)F)n1` [Cpd No 30-1, (R)-2-(4-(4-fluoro-3-(methylsulfonyl)phenyl)-2-isopropylpiperazin-1-yl)-4-(trifluoromethyl)pyrimidin-5-ol], for which the “Cell LXRα efficacy” value in assay [1] is 3121 (100) %. For the same molecule, the EC50 in assay [1] stood at 3120 nM; in assay [2], 729 nM. Also, the figures for the Ki on LXR α LBD protein and at LXR β LBD protein (read-out: LXRβ Binding Ki) were 169 nM and 24 nM, respectively. The “Cell LXRβ efficacy” value in assay [2] is recorded as 729 (98) %.
Regarding `CC(C)[C@@H]1CN(c2ccc(F)c(S(C)(=O)=O)c2)CCN1c1ncc(C(F)(F)F)c(C(C)(C)O)n1` [Cpd No 39-1, (R)-2-(2-(4-(4-fluoro-3-(methylsulfonyl)phenyl)-2-isopropylpiperazin-1-yl)-5-(trifluoromethyl)pyrimidin-4-yl)propan-2-ol], in assay [1], the “Cell LXRα efficacy” value is reported as 327 (96) %. Besides, the EC50 in assay [1] stood at 327 nM; in assay [2] it was 86 nM. Besides, the Ki on LXR α LBD protein worked out at 53 nM; on LXR β LBD protein (read-out: LXRβ Binding Ki), 2 nM. Further, the “Cell LXRβ efficacy” value in assay [2] (agonist mode) is 86 (62) %.
In the case of `CC(C)[C@@H]1CN(c2ccc(F)c(S(C)(=O)=O)c2)CCN1c1ncc(C(O)C(F)(F)F)cn1` (stereo partly drawn) [Cpd No 41-1, 2,2,2-trifluoro-1-(2-((R)-4-(4-fluoro-3-(methylsulfonyl)phenyl)-2-isopropylpiperazin-1-yl)pyrimidin-5-yl)ethan-1-ol], the “Cell LXRα efficacy” value in assay [1] was 3334 (36) %. The concentration giving a half-maximal response (EC50) in assay [1] was determined as 3330 nM; in assay [2], 305 nM. Also, the Ki at LXR α LBD protein is 1120 nM; on LXR β LBD protein (read-out: LXRβ Binding Ki), 92 nM. Besides, the “Cell LXRβ efficacy” value in assay [2] is given as 305 (19) %.
Take `COC(c1cnc(N2CCN(c3ccc(F)c(S(C)(=O)=O)c3)C[C@H]2C(C)C)nc1)C(F)(F)F` (stereo partly drawn) [Cpd No 42-1, 2-((R)-4-(4-fluoro-3-(methylsulfonyl)phenyl)-2-isopropylpiperazin-1-yl)-5-(2,2,2-trifluoro-1-methoxyethyl)pyrimidine]: in assay [1], the “Cell LXRα efficacy” value was 763 (48) % and the EC50 worked out at 763 nM. Also, at LXR α LBD protein, the Ki stood at 366 nM. Further, the inhibition constant Ki at LXR β LBD protein (read-out: LXRβ Binding Ki) was determined as 33 nM. In assay [2], the “Cell LXRβ efficacy” value is 124 (20) % and the EC50 is 124 nM.

The values are drawn from patent US10144715B2, “Piperazine derivatives as liver X receptor modulators” (priority 2014, dated 2018).
